Legend:
[1] = test system: Salmonella typhi; assay: Antimicrobial activity against Salmonella enterica subsp. enterica serovar Typhi H NCTC 901.8394 assessed as diameter of growth inhibition zone at 25 ug after 24 hr by well-diffusion method; format: functional; conditions: H NCTC 901.8394, 24 h, read-out: DIZ
[2] = test system: Listeria monocytogenes; assay: Antimicrobial activity against Listeria monocytogenes ATCC 19115 assessed as diameter of growth inhibition zone at 25 ug after 24 hr by well-diffusion method; format: functional; conditions: ATCC 19115, 24 h, read-out: DIZ
[3] = test system: Staphylococcus aureus; assay: Antimicrobial activity against Staphylococcus aureus ATCC 25923 assessed as diameter of growth inhibition zone at 25 ug after 24 hr by well-diffusion method; format: functional; conditions: ATCC 25923, 24 h, read-out: DIZ
[4] = test system: Escherichia coli; assay: microbe, parasite or virus in culture; conditions: ATCC 1280, 24 h, read-out: DIZ
[5] = test system: Salmonella typhi; assay: Antimicrobial activity against Salmonella enterica subsp. enterica serovar Typhi H NCTC 901.8394 assessed as diameter of growth inhibition zone at 10 ug after 24 hr by well-diffusion method; format: functional; conditions: H NCTC 901.8394, 24 h, read-out: DIZ
[6] = test system: Listeria monocytogenes; assay: Antimicrobial activity against Listeria monocytogenes ATCC 19115 assessed as diameter of growth inhibition zone at 10 ug after 24 hr by well-diffusion method; format: functional; conditions: ATCC 19115, 24 h, read-out: DIZ
[7] = test system: Staphylococcus aureus; assay: Antimicrobial activity against Staphylococcus aureus ATCC 25923 assessed as diameter of growth inhibition zone at 10 ug after 24 hr by well-diffusion method; format: functional; conditions: ATCC 25923, 24 h, read-out: DIZ
[8] = test system: Escherichia coli; assay: Antimicrobial activity against Escherichia coli ATCC 1280 assessed as diameter of growth inhibition zone at 10 ug after 24 hr by well-diffusion method; format: functional; conditions: ATCC 1280, 24 h, read-out: DIZ
[9] = test system: Brucella abortus; assay: Antimicrobial activity against Brucella abortus (A.99, UK-1995) RSKK03026 assessed as diameter of growth inhibition zone at 0.25 ug/ml after 24 hr by well-diffusion method; format: functional; conditions: (A.99, UK-1995) RSKK03026, 24 h, read-out: DIZ
[10] = test system: Listeria monocytogenes; assay: Antimicrobial activity against Listeria monocytogenes ATCC 19115 assessed as diameter of growth inhibition zone at 0.25 ug/ml after 24 hr by well-diffusion method; format: functional; conditions: ATCC 19115, 24 h, read-out: DIZ
[11] = test system: Micrococcus luteus; assay: Antimicrobial activity against Micrococcus luteus ATCC 9341 assessed as diameter of growth inhibition zone at 0.25 ug/ml after 24 hr by well-diffusion method; format: functional; conditions: ATCC 9341, 24 h, read-out: DIZ
[12] = test system: Candida albicans; assay: Antimicrobial activity against Candida albicans Y-1200-NIH assessed as diameter of growth inhibition zone at 0.25 ug/ml after 24 hr by well-diffusion method; format: functional; conditions: read-out: DIZ
[13] = test system: Staphylococcus aureus; assay: Antimicrobial activity against Staphylococcus aureus ATCC 25923 assessed as diameter of growth inhibition zone at 0.25 ug/ml after 24 hr by well-diffusion method; format: functional; conditions: ATCC 25923, 24 h, read-out: DIZ
[14] = test system: Staphylococcus epidermidis; assay: Antimicrobial activity against Staphylococcus epidermidis assessed as diameter of growth inhibition zone at 0.25 ug/ml after 24 hr by well diffusion method; format: functional; conditions: read-out: DIZ
[15] = test system: Escherichia coli; assay: Antimicrobial activity against Escherichia coli ATCC 1280 assessed as diameter of growth inhibition zone at 0.25 ug/ml after 24 hr by well-diffusion method; format: functional; conditions: ATCC 1280, 24 h, read-out: DIZ
[16] = test system: Listeria monocytogenes; assay: Antimicrobial activity against Listeria monocytogenes ATCC 19115 assessed as diameter of growth inhibition zone at 30 ug after 24 hr by well-diffusion method; format: functional; conditions: ATCC 19115, 24 h, read-out: DIZ
[17] = test system: Staphylococcus aureus; assay: Antimicrobial activity against Staphylococcus aureus ATCC 25923 assessed as diameter of growth inhibition zone at 30 ug after 24 hr by well-diffusion method; format: functional; conditions: ATCC 25923, 24 h, read-out: DIZ
[18] = test system: Escherichia coli; assay: Antimicrobial activity against Escherichia coli ATCC 1280 assessed as diameter of growth inhibition zone at 30 ug after 24 hr by well-diffusion method; format: functional; conditions: ATCC 1280, 24 h, read-out: DIZ
[19] = test system: Salmonella typhi; assay: Antimicrobial activity against Salmonella enterica subsp. enterica serovar Typhi H NCTC 901.8394 assessed as diameter of growth inhibition zone at 30 ug after 24 hr by well-diffusion method; format: functional; conditions: H NCTC 901.8394, 24 h, read-out: DIZ
[20] = test system: Shigella dysenteriae; assay: Antimicrobial activity against Shigella dysenteriae type 10 NCTC 9351 assessed as diameter of growth inhibition zone at 0.25 ug/ml after 24 hr by well diffusion method; format: functional; conditions: type 10 NCTC 9351, 24 h, read-out: DIZ
[21] = test system: Salmonella typhi; assay: Antimicrobial activity against Salmonella enterica subsp. enterica serovar Typhi H NCTC 901.8394 assessed as diameter of growth inhibition zone at 0.25 ug/ml after 24 hr by well-diffusion method; format: functional; conditions: H NCTC 901.8394, 24 h, read-out: DIZ
[22] = test system: Brucella abortus; assay: Antimicrobial activity against Brucella abortus (A.99, UK-1995) RSKK03026 assessed as diameter of growth inhibition zone at 30 ug after 24 hr by well-diffusion method; format: functional; conditions: (A.99, UK-1995) RSKK03026, 24 h, read-out: DIZ

Compound	zone of inhibition at 0.25 µg/mL [9] [mm]	zone of inhibition at 0.25 µg/mL [10] [mm]	zone of inhibition at 0.25 µg/mL [11] [mm]	zone of inhibition at 0.25 µg/mL [12] [mm]	zone of inhibition at 0.25 µg/mL [13] [mm]	zone of inhibition at 0.25 µg/mL [14] [mm]	zone of inhibition at 0.25 µg/mL [15] [mm]	zone of inhibition at 0.25 µg/mL [20] [mm]	zone of inhibition at 0.25 µg/mL [21] [mm]	also measured
Cc1cc(NS(=O)(=O)c2ccc(N)cc2)no1 [SULFAMETHOXAZOLE]										zone of inhibition at 25 µg/disc [1]: 17 mm; zone of inhibition at 25 µg/disc [2]: 11 mm; zone of inhibition at 25 µg/disc [3]: 24 mm; zone of inhibition at 25 µg/disc [4]: 18 mm
CC1(C)S[C@@H]2[C@H](NC(=O)[C@H](N)c3ccccc3)C(=O)N2[C@H]1C(=O)O [AMPICILLIN]										zone of inhibition at 10 µg/disc [5]: 11 mm; zone of inhibition at 10 µg/disc [6]: 16 mm; zone of inhibition at 10 µg/disc [7]: 30 mm; zone of inhibition at 10 µg/disc [8]: 10 mm
C[C@@H](/N=C/c1cc(F)ccc1O)C(=O)O	10.5	6.5	14	12.5	6	5	10			
NC[C@H]1O[C@H](O[C@H]2[C@H](O)[C@@H](O[C@H]3O[C@H](CO)[C@@H](O)[C@H](N)[C@H]3O)[C@H](N)C[C@@H]2N)[C@H](O)[C@@H](O)[C@@H]1O [KANAMYCIN]										zone of inhibition at 30 µg/disc [16]: 15 mm; zone of inhibition at 30 µg/disc [17]: 25 mm; zone of inhibition at 30 µg/disc [18]: 25 mm; zone of inhibition at 30 µg/disc [19]: 20 mm
C[C@@H](/N=C/c1cc(F)cc(Cl)c1O)C(=O)O	17.5	12.5	23.5	15	16	12	15.5	11.5	11.5	
CC1(C)S[C@@H]2[C@H](NC(=O)[C@H](N)c3ccc(O)cc3)C(=O)N2[C@H]1C(=O)O [AMOXICILLIN]										zone of inhibition at 30 µg/disc [16]: 22 mm; zone of inhibition at 30 µg/disc [17]: 30 mm; zone of inhibition at 30 µg/disc [18]: 14 mm; zone of inhibition at 30 µg/disc [19]: 19 mm
O=C(O)C/N=C/c1cc(F)ccc1O	11.5	10	15	10	7	6	13	11	15	
CC1(C)[C@H](C(=O)O)N2C(=O)C[C@H]2S1(=O)=O [SULBACTAM]										zone of inhibition at 30 µg/disc [22]: 12 mm
O=C(O)C/N=C/c1cc(F)cc(Cl)c1O	15	10	26.5	15.5	18.5	12.5	16	18	18	

— ChEMBL document CHEMBL3046439, “Spectroscopic characterization of novel d-amino acid-Schiff bases and their Cr(III) and Ni(II) complexes as antimicrobial agents” (2013)
